Test results reported in patent US7951789B2 (priority 2006, dated 2011).

Experiments:
HBV wt (HepG2) = experiment: Anti-HBV activity in HBV-infected HepG2 cells; format: cell-based; conditions: N=3
Procedure: The compound of Example 1 (NM 204) (Hydroxy-tBuSATE N-benzylphosphoramidate derivative of L-ddA) (A550) was contacted with HBV-infected HepG2 cells. EC50 values were measured according to standard techniques.

HCV genotype 1 = experiment: Antiviral activity in chimpanzees chronically infected with HCV genotype 1; format: in vivo; conditions: 4 days; for Mean viral load reduction: HCV-infected chimpanzees, 10 mg/kg/day oral once daily
Procedure: (§1) Methods: For pharmacokinetic (PK) and toxicology studies, B102 were orally administered to rats or monkeys at doses from 20 to 300 mg/kg/day up to 14 days. Hepatic nucleoside TP levels were determined by LC-MS/MS. Compounds (10 mg/kg/day) were administered once daily by oral gavage for 4 days in chimpanzees chronically infected with HCV genotype 1. HCV viral loads were monitored before, during and after treatment by quantitative RT-PCR.

[1] = tested on: endogenous HBV polymerase activity; experiment: HBV drug susceptibility assay (EPA read-out); format: cell-based
Procedure: • a) Collagen-I coated cell culture plates were seeded with cells at a density of 0.25-0.5×10^6 cells per well in 2 ml of growth/selection media. • b) Drug stock solutions were made up freshly in 100% DMSO as 200× stocks. Seven 4-fold dilutions of test compound were prepared ranging from 2.5 μM to 0.0006 μM (final). Master drug dilutions were divided into 4 aliquots, and then stored at −20° C. until used. • c) One day after cells were seeded, drug treatments were initiated by adding 10 μl of drug dilution along with 2 ml of fresh growth/selection media. […] The no-drug control wells received 10 μl of DMSO in fresh media. • d) Cells were treated every-other-day with 2 ml of fresh drug combinations/medium for a total of 8 days. Cell lysates were then collected on day 10 as described below and endogenous polymerase assay were performed. Preparation of Nucleocapsid-Containing Lysates for Epa Analysis • a) Two days after the final drug treatment, cells were harvested. • b) Media was carefully aspirated and the cell monolayers were rinsed once with 1 ml of PBS. • c) 1 ml of lysis buffer (50 mM Tris-HCl pH 7.5/150 mM NaCl/5 mM MgCl2/0.2% NP-40) was added to each well. The detergent is required to strip the outer envelope from virions and to allow capture of the inner nucleocapsids. Plates were kept on ice for >30 min. • d) Lysed cells were transferred to 1.5 ml-microfuge tubes. • e) Lysates were clarified by spinning at room temperature for 5 min at 14,000 rpm. • f) Clarified lysates were transferred to fresh tubes and immediately frozen on dry-ice, then stored at −80° C. until endogenous polymerase assays can be performed as described below. Endogenous Polymerase Assay (EPA) of Cell Lysates • a) EPAs were performed essentially as described in Seifer, et al (1998). J. Virol. 72: 2765-2776. […] The detergent is required to enhance permeability of the nucleocapsids. • d) Following digestion with 1 mg/ml of Proteinase K for 1 hour at 37° C., endogenously ^33P-labeled HBV DNA was liberated via phenol/chloroform extraction. • e) The nucleic acids were then precipitated with one volume of 5 M NH4-acetate and 2.5 volumes 100% EtOH, and separated on a 1% native agarose gel in Tris-borate buffer. • f) Gels were blotted onto positively charged nylon membrane overnight at room temperature via capillary transfer in 0.4 N NaOH. • g) Dried membranes were exposed to a phosphoimager screen (GE Healthcare) overnight at room temperature, then scanned (Storm 860, GE Healthcare) and quantitated with ImageQuant software (GE Healthcare). • h) Dose-response curves were generated using XLfit 4.1 software. The mean effective drug concentrations that inhibit endogenous HBV polymerase activity by 50% were calculated from several independent experiments. Cytotoxicity Determination

[2] = In vitro cytotoxicity assay in HepG2 cells (MTS); format: cell-based; conditions: human, collagen plates
Procedure: A standard in vitro cytotoxicity assay was performed in HepG2 cells. Cells were exposed to drug for 9 days. Cell viability was determined via MTS staining using a CellTiter 96 Aqueous One Solution cell proliferation assay according to the manufacturer's instructions. • a) HepG2 cells were seeded in 96-well tissue culture plates in 100 μl fresh growth media at 7×10^3 cells per well. • b) Drug stock solutions were made up in 100% DMSO as 400× stock solutions and stored at −20° C. until used. • c) Four hours after cells were plated the drug dilutions were prepared and then added to the cells. Cells received up to 100 μM of drug in a total of 200 μl of fresh growth media containing 0.25% DMSO. Control wells received growth media with 0.25% DMSO growth media. Plates were incubated at 37° C., 5% CO2. • d) Cells were treated every-other-day with fresh growth media and fresh drug dilutions for a total of 8 days as described above. • e) On day 9, cell viability of HepG2 cells was determined by adding 20 μl of MTS CellTiter 96 Aqueous One Solution.

[3] = tested on: wild-type HBV (intracellular nucleocapsids); experiment: Anti-HBV activity in HBV nucleocapsids (RI) via endogenous polymerase assay (EPA); format: cell-based; conditions: Hepatitis B virus; wild-type HBV producer cell line, intracellular nucleocapsids, EPA; read-out: RI EC50
Procedure: (§2) Compounds were tested in an anti-HBV assay. Determination of anti-HBV activity in HBV virions and nucleocapsids via endoenous polymerase assays (EPA)
(§3) • 1. 12-well collagen-I coated plates were seeded with producer cells expressing wild-type HBV at a density of 0.5-1×10^6 cells per well in 2 ml growth/selection media. • 2. Drug stock solutions were made up freshly in 100% DMSO as 200× stocks. Five additional 4-fold dilutions were prepared from these 200× stock in 100% DMSO. For each experiment, 4 aliquots of each drug dilution series were stored at −20° C. until used. • 3. Once cells reached confluency (1 day after cells were seeded), drug treatment was initiated by adding 10 μl of drug dilution into 2 ml of fresh growth/selection media. […] The no-drug control wells received only 10 μl of DMSO in fresh media. • 4. Cells were treated every-other-day with 2 ml of fresh drug/medium for a total of 8 days. Cell lysates were then collected on day 10 and subjected to EPA analysis as described below. Preparation of Nucleocapsid-Containing Lysates for Epa Analysis • 1. Cells were grown for 3 to 4 days in 12-well collagen-I coated plates until confluent. • 2. Media was carefully aspirated and the cell monolayers were rinsed once with 1 ml of PBS. • 3. One ml of lysis buffer (50 mM Tris-HCl pH 7.5/150 mM NaCl/5 mM MgCl2/0.2% NP-40) was added to each well. Plates were stored on ice for 30 min to 4 h. • 4. Lysed cells were transferred to 1.5 ml-microfuge tubes. • 5. Lysates were clarified by spinning at 14,000 rpm for 5 min at room temperature. • 6. Clarified lysates were transferred to fresh tubes and immediately frozen on dry-ice, then stored at −80° C. until endogenous polymerase assays were performed as described below. Preparation of Secreted Virions from Supernatant for Epa Analysis • 1. Cells were grown for 3 to 4 days in 12-well collagen-I coated plates until confluent. • 2. Media was carefully aspirated and transferred to 1.5 ml-microfuge tubes. • 3. Supernatants were clarified by spinning at 14,000 rpm for 5 min at room temperature. • 4. Clarified supernatants were transferred to fresh tubes and immediately frozen on dry-ice, then stored at −80° C. until endogenous polymerase assays were performed essentially as described below. Endogenous Polymerase Assay (EPA) of Cell Lysates and Supernatants • 1. EPAs were performed essentially as described by Seifer et al (1998). Intracellular HBV nucleocapsids were immunoprecipitated from the cytoplasmic lysates overnight at 4° C. with a polyclonal rabbit anti-HBcAg antibody and immobilized on protein A sepharose CL-4B beads. Secreted virions were immunoprecipitated from clarified cell supernatants overnight at 4° C. with a monoclonal mouse anti-LS antibody (MA18/7) in the absence of detergent. • 2. Following 3 washes of the immobilized capsids or virions with 1 ml of EPA wash buffer (75 mM NH4Cl, 50 mM Tris-HCl pH 7.4, 1 mM EDTA), endogenous polymerase reactions were initiated by adding 50 μl of detergent-containing EPA cocktail (50 mM Tris-HCl pH7.4, 75 mM NH4Cl, 1 mM EDTA, 20 mM MgCl2, 0.1 mM β-ME, 0.5% NP-40, 100 μM cold dGTP, TTP, dCTP, and 50 nM ^33P-dATP) and incubated overnight at 37° C. The detergent is required to strip the outer envelope from immunoprecipitated virions as well as to enhance permeability of the nucleocapsids. • 3. Following digestion with 1 mg/ml of proteinase K for 1 h at 37° C., endogenously ^33P-labeled HBV DNA was liberated via phenol/chloroform extraction. • 4. The nucleic acids were precipitated with 1 volume of 5M NH4-acetate and 2.5 volumes of 100% EtOH, and then separated on a 1% native agarose gel in Tris-borate-EDTA buffer. • 5. Gels were blotted onto positively charged nylon membrane overnight at room temperature via capillary transfer in 0.4 N NaOH. • 6. Dried membranes were exposed to a Phosphorlmager screen (GE Healthcare) overnight at room temperature, then scanned (Storm 860, GE Healthcare) and quantitated with ImageQuant software (GE Healthcare). • 7. […]

[4] = tested on: wild-type HBV (secreted virions); experiment: Anti-HBV activity in HBV virions via endogenous polymerase assay (EPA); format: cell-based; conditions: Hepatitis B virus, read-out: Virion EC50 (μM)
Procedure: as §2, §3

[5] = tested on: HCV Conl subgenomic replicon (GS4.1 cells); experiment: HCV replicon assay (NS4A ELISA, HCV ELISA 2); format: cell-based; conditions: Hepatitis C virus; GS4.1 cells, 72 hours, NS4A ELISA; read-out: HCV ELISA 2 EC50
Procedure: (§4) Huh-7 cells containing HCV Conl subgenomic replicon (GS4.1 cells), (C. Seeger; Fox Chase University, Philadelphia, Pa., USA), are grown in Dulbecco's Modified Eagle Medium (DMEM) supplemented with 10% fetal bovine serum (FBS), 2 mM L-glutamine, 110 mg/L sodium pyruvate, 1×non-essential amino acids, 100 U/mL penicillin-streptomycin and 0.5 mg/mL G418 (Invitrogen). For dose-response testing, the cells are seeded in 96-well plates at 7.5×10^3 cells/well in a volume of 50 μL and incubated at 37° C./5% CO2. Three hours after plating, 50 μL of ten 2-fold serial dilutions of compounds (highest concentration, 75 μM) are added and cell cultures were incubated at 37° C./5% CO2 in the presence of 0.5% DMSO. Alternatively, compounds are tested at a single concentration of 15 μM. In all cases, Huh-7 cells lacking the HCV replicon served as negative control. The cells are incubated in the presence of compounds for 72 hours after which they were monitored for expression of the NS4A protein by enzyme-linked immunosorbent assay (ELISA). For this, the plates were then fixed for 1 min with 1:1 acetone:methanol, washed twice with phosphate-buffered saline (PBS), 0.1% Tween 20, blocked for 1 hour at room temperature with TNE buffer containing 10% FBS and then incubated for 2 h at 37° C. with the anti-NS4A mouse monoclonal antibody A-236 (ViroGen) diluted in the same buffer. After washing three times with PBS, 0.1% Tween 20, the cells are incubated 1 hour at 37° C. with anti-mouse immunoglobulin G-peroxidase conjugate in TNE, 10% FBS. After washing as described above, the reaction is developed with O-phenylenediamine (Zymed). The reaction is stopped after 30 minutes with […] and the absorbance is read at 492 nm using a Sunrise Tecan spectrophotometer. EC50 values are determined from the % inhibition versus concentration data using a sigmoidal non-linear regression analysis based on four parameters with Tecan Magellan software. […] For cytotoxicity evaluation, GS4.1 cells are treated with compounds as described above and cellular viability was monitored using a Cell Titer 96 AQueous One Solution Cell Proliferation Assay (Promega). CC50 values are determined from the % cytotoxicity versus concentration data with Tecan Magellan software as described above.

[6] = Cytotoxicity evaluation in GS4.1 cells (Cell Titer 96 AQueous One Solution); format: cell-based; conditions: human, 72 hours
Procedure: as §4

[7] = Pharmacokinetic (PK) studies, oral, rat; format: in vivo; conditions: orally administered
Procedure: as §1

[8] = Pharmacokinetic (PK) studies, oral, monkey; format: in vivo; conditions: orally administered
Procedure: as §1

In the case of `CC(C)(CO)C(=O)SCCOP(=O)(NCc1ccccc1)OC[C@H]1CC[C@@H](n2cnc3c(N)ncnc32)O1` (stereo partly shown) [Ex 1 (A550)], the EC50 (HBV wt (HepG2); Hepatitis B virus) is reported as 62 ± 18 nM.
With `CC(C)[C@H](N)C(=O)O[C@@H]1[C@@H](CO)O[C@@H](n2ccc(N)nc2=O)[C@]1(C)O` [valopicitabine, reference compound] the “Mean viral load reduction” value (HCV genotype 1) was 0.7 log 10.
For `Nc1ccn([C@@H]2CS[C@H](CO)O2)c(=O)n1` [Lamivudine, lamivudine], the EC50 (HBV wt (HepG2); Hepatitis B virus) was 22 ± 7 nM.
For `CC(C)(CO)C(=O)SCCOP(=O)(COCCn1cnc2c(N)ncnc21)NCc1ccccc1` (stereo not shown) [Example B261, Hydroxy-tBuSATE N-benzylphosphonamidate Derivative of PMEA], the SI ([1]; CC50/EC50, HBV Cell Assay (EPA Read-out)) was 1,225, the EC50 ([1]; Hepatitis B virus, HBV Cell Assay (EPA Read-out), collagen plates, read-out: Antiviral Activity (EC50 in μM)) was 0.016 ± 0.004 µM and the CC50 at 9 days [2] was 19.6 µM. The EC50 [3] was < 1000 nM.
For `CC(C)(CO)C(=O)SCCOP(=O)(NCc1ccccc1)OC[C@H]1CC[C@@H](n2cnc3c(N)ncnc32)O1` (stereo partly shown) [A550 (NM 204)], the EC50 [4] was < 1 µM and the EC50 [3] was < 1000 nM.
For `Nc1ncnc2c1ncn2[C@@H]1CC[C@H](CO)O1` [LddA, L-ddA], the EC50 (HBV wt (HepG2)) was > 10000 nM.
Molecule `CC(C)(CO)C(=O)SCCOP(=O)(NCc1ccccc1)OC[C@@H]1CC[C@H](n2cnc3c(N)ncnc32)O1` (stereo partly shown) [C819 (NM 177)] has an EC50 [4] of 1 to 10 µM and an EC50 [3] of 1000 to 10000 nM.
With `CC(C)(CO)C(=O)SCCOP(=O)(NCc1ccccc1)OC[C@H]1O[C@@H](n2ccc(N)nc2=O)[C@](C)(O)[C@@H]1O` (mixture of isomers) [Example B102, Hydroxy-tBuSATE N-benzylphosphoramidate Derivative of 2′-C-methylcytidine] the EC50 [5] was 1000 to 10000 nM, the CC50 [6] was > 75000 nM and the first-pass hepatic extraction [7] was > 95%. For the same molecule, the systemic exposure [7] was < 1%, the first-pass hepatic extraction [8] was > 95% and the systemic exposure [8] was < 1%. The “Mean viral load reduction” value (HCV genotype 1) was 1.5 log 10 and the “lab abnormalities or evidence of toxicities” value (HCV genotype 1; chimpanzees, 10 mg/kg/day oral) was “No lab abnormalities or evidence of toxicities were observed”.
For `CC(C)NP(=O)(OCCSC(=O)C(C)(CO)CO)OC[C@H]1CC[C@@H](n2cnc3c(N)ncnc32)O1` (stereo partly shown) [A361 (NM 55)], the EC50 [4] was > 10 µM and the EC50 [3] was 1000 to 10000 nM.
